In brackets after ≈: the same amount, converted by molar mass. Activity calls are given as the source filed them. The calls are words filed in the database; no cut-off is given here.
How the values were obtained:
[1] = Metabolic stability in cynomolgus monkey liver microsomes at 1 uM after 5 to 60 mins by LC-MS/MS analysis; assay type: ADME, Macaca fascicularis, microsome
[2] = tested on: Cynomolgus monkey; assay: Oral bioavailability in cynomolgus monkey at 5 mg/kg by LC-MS/MS analysis; assay type: ADME, organism-based, Macaca fascicularis; details: in vivo
[3] = Drug uptake in dog brain at 3 mg/kg, po after 168 hrs; assay type: ADME, organism-based, Canis lupus familiaris; details: read-out: Drug uptake
[4] = Solubility of compound in phosphate buffer at pH 7 after 3 days; assay type: physicochemical
[5] = tested on: Canis familiaris; assay: Drug uptake in dog at 30 to 300 mg/kg administered via oral gavage on day 1 and day 5; assay type: ADME, organism-based, Canis lupus familiaris; details: in vivo
[6] = Volume of distribution at steady state in beagle dog at 0.5 mg/kg, iv or 2.5 mg/kg, po by LC-MS/MS analysis; assay type: ADME, organism-based, Canis lupus familiaris; details: in vivo, read-out: Vdss
[7] = tested on: Rattus norvegicus; assay: Inhibition of Bz-ATP-induced IL-1beta release in po dosed Sprague-Dawley rat hippocampus preincubated for 1 hr followed by Bz-ATP challenge measured after 2 hrs by microdialysis method; assay type: functional, organism-based
[8] = tested on: Canis familiaris; assay: Inhibition of LPS/Bz-ATP-induced IL-1beta release in dog blood at 3 mg/kg, po after 4 to 96 hrs; assay type: functional, organism-based; details: Canis lupus familiaris
[9] = Antagonist activity at P2X7 in dog whole blood assessed as inhibition of BzATP-induced IL-1beta release preincubated for 30 mins followed by BzATP addition measured after […] by ELISA; details: Canis lupus familiaris
[10] = tested on: Liver; assay: Metabolic stability in dog liver microsomes at 1 uM after 5 to 60 mins by LC-MS/MS analysis; assay type: ADME, Canis lupus familiaris, microsome
[11] = target: P2X purinoceptor 7 (Rattus norvegicus) (UniProt Q64663); assay: Displacement of [3H]-(6S)-7-[[2-chloro-3-(trifluoromethyl)phenyl]methyl]-6-methyl-3-pyrimidin-2-yl-5,6dihydro[1,2,4]triazolo[4,3-a]pyrazin-8-one from P2X7 in rat frontal cortex at 100 pM to 10 uM
P2X purinoceptor 7 (Rattus norvegicus), sequence (Q64663 whole entry): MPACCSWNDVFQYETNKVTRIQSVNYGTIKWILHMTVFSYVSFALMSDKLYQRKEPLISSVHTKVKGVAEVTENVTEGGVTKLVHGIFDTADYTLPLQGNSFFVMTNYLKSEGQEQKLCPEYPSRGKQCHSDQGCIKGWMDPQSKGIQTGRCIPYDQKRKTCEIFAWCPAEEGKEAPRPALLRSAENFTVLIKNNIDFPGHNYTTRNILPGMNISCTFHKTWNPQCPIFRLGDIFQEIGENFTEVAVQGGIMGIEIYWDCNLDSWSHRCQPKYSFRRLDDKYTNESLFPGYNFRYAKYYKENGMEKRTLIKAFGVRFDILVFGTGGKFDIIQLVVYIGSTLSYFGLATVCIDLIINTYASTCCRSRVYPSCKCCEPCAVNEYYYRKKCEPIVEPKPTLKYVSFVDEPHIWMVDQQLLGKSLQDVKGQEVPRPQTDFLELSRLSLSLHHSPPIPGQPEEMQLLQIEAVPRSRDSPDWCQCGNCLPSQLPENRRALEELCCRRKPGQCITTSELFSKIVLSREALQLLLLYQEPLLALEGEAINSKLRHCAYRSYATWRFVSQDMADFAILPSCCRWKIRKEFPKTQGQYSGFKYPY

[12] = target: P2X purinoceptor 7 (Mus musculus, UniProt Q9Z1M0); assay: Antagonist activity at P2X7 in mouse whole blood assessed as inhibition of BzATP-induced IL-1beta release preincubated for 30 mins followed by BzATP addition measured after […] by ELISA
P2X purinoceptor 7, sequence (Q9Z1M0 whole entry): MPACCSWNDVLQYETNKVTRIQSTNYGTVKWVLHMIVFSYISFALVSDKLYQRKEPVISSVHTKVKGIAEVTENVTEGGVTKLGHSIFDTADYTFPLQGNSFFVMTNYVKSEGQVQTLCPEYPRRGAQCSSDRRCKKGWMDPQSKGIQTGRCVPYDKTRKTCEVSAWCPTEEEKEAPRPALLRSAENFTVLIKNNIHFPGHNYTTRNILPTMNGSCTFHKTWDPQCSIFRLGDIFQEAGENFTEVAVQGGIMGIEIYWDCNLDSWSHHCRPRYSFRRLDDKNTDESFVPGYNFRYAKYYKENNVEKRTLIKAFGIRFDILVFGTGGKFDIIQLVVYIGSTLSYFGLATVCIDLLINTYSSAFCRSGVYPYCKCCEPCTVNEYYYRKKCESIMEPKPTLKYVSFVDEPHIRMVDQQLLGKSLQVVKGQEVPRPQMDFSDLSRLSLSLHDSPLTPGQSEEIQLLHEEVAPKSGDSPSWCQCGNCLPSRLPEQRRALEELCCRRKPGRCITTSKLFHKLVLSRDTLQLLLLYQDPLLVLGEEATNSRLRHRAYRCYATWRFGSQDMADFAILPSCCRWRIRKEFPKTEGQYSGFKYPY

[13] = Half life in Sprague-Dawley rat at 1 mg/kg, iv by LC-MS/MS analysis; assay type: ADME, organism-based; details: in vivo
[14] = tested on: Hepatocyte; assay: Metabolic stability in hepatocytes (unknown origin); assay type: ADME, cell-based
[15] = Apparent permeability across apical to basolateral side in human Caco2 cells; assay type: ADME, cell-based; details: Caco-2
[16] = Protein binding in rat plasma at 1 uM after 6 hrs by equilibrium dialysis method; assay type: ADME, cell-free; details: read-out: PPB (converted)
[17] = Apparent permeability across basolateral to apical side in human Caco2 cells; assay type: ADME, cell-based; details: Caco-2
[18] = tested on: Rattus norvegicus; assay: Ex vivo receptor occupancy at P2X7 in po dosed Sprague-Dawley rat brain assessed as plasma concentration required to achieve EC50 after 60 mins by autoradiography; assay type: functional, organism-based
[19] = tested on: Liver; assay: Metabolic stability in human liver microsomes at 1 uM after 5 to 60 mins by LC-MS/MS analysis; assay type: ADME, microsome
[20] = Protein binding in mouse plasma at 1 uM after 6 hrs by equilibrium dialysis method; assay type: ADME, cell-free; details: read-out: PPB (converted)
[21] = organism: Homo sapiens; assay: Toxicity in human at 0.5 to 600 mg
[22] = tested on: Canis familiaris; assay: Toxicity in dog assessed as change in serum chemistry at 30 to 300 mg/kg administered via oral gavage on day 1 and day 5; assay type: organism-based, Canis lupus familiaris; details: in vivo
[23] = tested on: Canis familiaris; assay: Ex vivo receptor occupancy at P2X7 in dog brain at 3 mg/kg, po after 96 hrs by autoradiography; assay type: functional, organism-based; details: Canis lupus familiaris
[24] = Protein binding in human plasma at 1 uM after 6 hrs by equilibrium dialysis method; assay type: ADME, cell-free; details: read-out: PPB (converted)
[25] = target: P2X purinoceptor 1 (Homo sapiens) (UniProt P51575); assay: Antagonist activity at P2X1 (unknown origin) assessed as inhibition of BzATP-induced calcium flux up to 10 uM preincubated for 30 mins followed by BzATP addition measured over 180 secs by FLIPR assay
P2X purinoceptor 1 (Homo sapiens), sequence (P51575 whole entry): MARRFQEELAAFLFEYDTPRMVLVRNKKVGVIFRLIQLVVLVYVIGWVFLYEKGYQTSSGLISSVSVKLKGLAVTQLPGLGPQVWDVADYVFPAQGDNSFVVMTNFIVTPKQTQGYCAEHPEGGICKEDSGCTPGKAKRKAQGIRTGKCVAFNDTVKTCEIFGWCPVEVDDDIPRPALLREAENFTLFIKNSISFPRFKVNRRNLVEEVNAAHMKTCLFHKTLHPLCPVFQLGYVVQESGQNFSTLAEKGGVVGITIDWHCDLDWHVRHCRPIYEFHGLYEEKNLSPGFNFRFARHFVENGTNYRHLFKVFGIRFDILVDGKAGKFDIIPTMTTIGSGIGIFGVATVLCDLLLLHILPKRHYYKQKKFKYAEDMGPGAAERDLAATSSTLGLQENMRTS

[26] = tested on: Canis familiaris; assay: Oral bioavailability in beagle dog at 2.5 mg/kg by LC-MS/MS analysis; assay type: ADME, organism-based, Canis lupus familiaris; details: in vivo
[27] = Volume of distribution at steady state in Sprague-Dawley rat at 1 mg/kg, iv or 5 mg/kg, po by LC-MS/MS analysis; assay type: ADME, organism-based; details: in vivo, read-out: Vdss
[28] = target: T1, Cytochrome P450 2C8 (Homo sapiens, UniProt P10632); assay: Inhibition of CYP2C8 in human liver microsomes using paclitaxel as substrate after 15 mins by LC-MS/MS analysis; assay type: ADME
T1 sequence (P10632 whole entry): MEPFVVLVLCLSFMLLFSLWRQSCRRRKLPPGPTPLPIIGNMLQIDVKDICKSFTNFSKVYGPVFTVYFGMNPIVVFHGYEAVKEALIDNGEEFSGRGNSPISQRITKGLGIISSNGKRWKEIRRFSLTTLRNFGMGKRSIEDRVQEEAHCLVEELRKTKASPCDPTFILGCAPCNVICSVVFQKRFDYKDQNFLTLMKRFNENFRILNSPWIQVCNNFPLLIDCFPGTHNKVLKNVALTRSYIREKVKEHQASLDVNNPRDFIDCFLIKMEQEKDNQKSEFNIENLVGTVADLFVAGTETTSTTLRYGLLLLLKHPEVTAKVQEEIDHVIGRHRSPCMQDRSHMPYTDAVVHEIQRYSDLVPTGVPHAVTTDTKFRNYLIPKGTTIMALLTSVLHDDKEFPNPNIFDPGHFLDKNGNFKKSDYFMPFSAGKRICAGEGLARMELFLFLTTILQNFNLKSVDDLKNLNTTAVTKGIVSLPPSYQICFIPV

[29] = target: P2X purinoceptor (Macaca mulatta, UniProt G7N604); assay: Antagonist activity at macaque P2X7 assessed as inhibition of BzATP-induced calcium flux preincubated for 30 mins followed by BzATP addition measured over 180 secs by FLIPR assay
P2X purinoceptor, sequence (G7N604 whole entry): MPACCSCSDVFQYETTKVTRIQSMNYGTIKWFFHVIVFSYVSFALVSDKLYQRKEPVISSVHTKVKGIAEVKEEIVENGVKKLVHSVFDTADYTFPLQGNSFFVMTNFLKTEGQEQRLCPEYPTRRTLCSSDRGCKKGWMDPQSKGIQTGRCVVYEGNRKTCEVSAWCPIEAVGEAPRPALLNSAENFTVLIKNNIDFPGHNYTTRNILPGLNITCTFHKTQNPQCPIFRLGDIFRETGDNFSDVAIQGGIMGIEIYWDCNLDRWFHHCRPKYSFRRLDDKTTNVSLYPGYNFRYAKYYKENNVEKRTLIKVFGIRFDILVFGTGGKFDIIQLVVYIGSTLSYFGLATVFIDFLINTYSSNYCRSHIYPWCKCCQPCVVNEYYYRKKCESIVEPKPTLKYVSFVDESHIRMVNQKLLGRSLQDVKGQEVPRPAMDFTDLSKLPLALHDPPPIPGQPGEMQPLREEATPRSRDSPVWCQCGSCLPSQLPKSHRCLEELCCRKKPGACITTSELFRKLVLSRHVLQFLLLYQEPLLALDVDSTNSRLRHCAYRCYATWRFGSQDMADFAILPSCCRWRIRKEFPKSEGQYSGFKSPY

[30] = Antagonist activity at dog P2X7 assessed as inhibition of BzATP-induced calcium flux preincubated for 30 mins followed by BzATP addition measured over 180 secs by FLIPR assay; parameters: species or system Canis lupus familiaris
[31] = tested on: Canis familiaris; assay: Toxicity in dog at 30 to 300 mg/kg administered via oral gavage on day 1 and day 5 by histopathological method; assay type: organism-based, Canis lupus familiaris; details: in vivo
[32] = Volume of distribution at steady state in cynomolgus monkey at 1 mg/kg, iv or 5 mg/kg, po by LC-MS/MS analysis; assay type: ADME, organism-based, Macaca fascicularis; details: in vivo, read-out: Vdss
[33] = Half life in beagle dog at 0.5 mg/kg, iv by LC-MS/MS analysis; assay type: ADME, organism-based, Canis lupus familiaris; details: in vivo
[34] = tested on: Liver; assay: Metabolic stability in mouse liver microsomes at 1 uM after 5 to 60 mins by LC-MS/MS analysis; assay type: ADME, microsome
[35] = tested on: Rattus norvegicus; assay: Ex vivo receptor occupancy at P2X7 in po dosed Sprague-Dawley rat brain after 60 mins by autoradiography; assay type: functional
[36] = target: P2X purinoceptor 3 (Homo sapiens) (UniProt P56373); assay: Antagonist activity at P2X3 (unknown origin) assessed as inhibition of BzATP-induced calcium flux up to 10 uM preincubated for 30 mins followed by BzATP addition measured over 180 secs by FLIPR assay
P2X purinoceptor 3 (Homo sapiens), sequence (P56373 whole entry): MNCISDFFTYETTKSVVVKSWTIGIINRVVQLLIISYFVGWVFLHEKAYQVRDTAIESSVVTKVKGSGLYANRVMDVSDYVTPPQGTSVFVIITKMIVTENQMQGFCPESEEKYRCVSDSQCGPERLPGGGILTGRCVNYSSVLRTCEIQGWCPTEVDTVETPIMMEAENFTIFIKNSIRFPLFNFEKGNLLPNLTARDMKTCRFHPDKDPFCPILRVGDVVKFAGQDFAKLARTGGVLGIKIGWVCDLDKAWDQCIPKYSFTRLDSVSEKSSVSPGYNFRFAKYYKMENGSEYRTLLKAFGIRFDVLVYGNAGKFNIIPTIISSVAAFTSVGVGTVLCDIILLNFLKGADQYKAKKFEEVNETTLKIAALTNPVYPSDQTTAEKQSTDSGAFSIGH

[37] = Clearance in cynomolgus monkey at 1 mg/kg, iv or 5 mg/kg, po by LC-MS/MS analysis; assay type: ADME, organism-based, Macaca fascicularis; details: in vivo

## C[C@@H]1c2nnn(-c3ncc(F)cn3)c2CCN1C(=O)c1cccc(C(F)(F)F)c1Cl [JNJ-54175446]
[1]
  Stability: Stable
[2]
  F: 157%
[3]
  concentration at 168 h: ≤ 0.5 µM
[4]
  solubility at 72 h: 20.7 µM (≈ 9.12 µg/mL)
[5]
  Drug uptake: Active
[6]
  Vd: 2.5 L/kg
[7]
  inhibition: Dose-dependent effect
[8]
  inhibition: Active
[9]
  IC50: 0.158 µM
[10]
  Stability: Stable
[11]
  inhibition: Dose-dependent effect
[12]
  IC50: 0.0316 µM
[13]
  half-life: 8.6 h
[14]
  Stability: Stable
[15]
  Papp A→B: 753 nm/s
[16]
  fraction unbound at 6 h, 1 µM: 0.122
[17]
  Papp B→A: 488 nm/s
[18]
  Cp: 105 ng/mL
[19]
  Stability: Stable
[20]
  fraction unbound at 6 h, 1 µM: 0.113
[21]
  Activity: Non-Toxic
[22]
  Activity: Non-Toxic
[23]
  Occ: Active
[24]
  fraction unbound at 6 h, 1 µM: 0.112
[25]
  inhibition: inactive
[26]
  F: 164%
[27]
  Vd: 2.1 L/kg
[28]
  IC50: 9.6 µM
[29]
  IC50: 0.00794 µM
[30]
  pIC50: 7.9
[31]
  Activity: Non-Toxic
[32]
  Vd: 2.1 L/kg
[33]
  half-life: 32 h
[34]
  Stability: Stable
[35]
  Occ: Dose-dependent effect
[35]; 1 h
  ED50: 0.46 mg/kg
[36]
  inhibition: inactive
[37]
  clearance: 0.264 L/h/kg
